# Patent publication US20170202822A1, “METHODS AND COMPOSITIONS FOR ENHANCING CANCER THERAPY” (THE SCRIPPS RESEARCH INSTITUTE, priority 2014, published 2017)
# Columns and labels:
# [1] = test system: MCF7 cells; test: Proliferation of MCF7 cells (shCtrl vs shNAMPT) by crystal violet staining; format: cell-based, human; conditions: for restoration of tamoxifen sensitivity: ER+/NAMPT-low MCF7 cells, 1, 5 or 10 mM NAM or 1 or 5 mM NR
# Experimental: (§1) NAMPT knockdown (shNAMPT) reduced NAMPT (A) mRNA and (B) protein expression in MCF7 and T47D cells compared to controls transduced with scrambled shRNA (shCtrl). (A) NAMPT mRNA levels were analyzed by real time PCR and are expressed relative to beta-D-glucuronidase (GUSB) (***P<0.001) (n=3). (B) NAMPT protein expression was analyzed by Western blot analysis. Quantification of NAMPT protein was related to β-tubulin expression. […] Cellular NAD was analyzed in whole cell extracts of 1×10^6 cells. Metabolite concentrations were determined using a NAD+/NADH fluorescence detection kit (Cell Technology, Inc) and normalized to protein content. (D) Proliferation of control (shCtrl) vs NAMPT-knockdown (shNAMPT) MCF7 and T47D cells, untreated or treated with 0.001, 0.05, 0.1, 1, or 5 μM 4-hydroxytamoxifen (tamoxifen active metabolite) for 14 days. Proliferation was measured based on crystal violet staining and is expressed as % of proliferation of untreated cells. Groups were compared by unpaired two-tailed Student's t-test in n=4 (***P<0.001, **P<0.01 *P<0.05).
# (A) Effect of nicotinamide treatment (10 mM NAM) on proliferation of control (shCtrl) vs NAMPT-knockdown (shNAMPT) MCF7 and T47D cells exposed to 1 μM or 0.1 μM 4-hydroxytamoxifen (tamoxifen active metabolite) respectively for 14 days. Proliferation was measured based on crystal violet staining and is expressed as % of proliferation of untreated cells (no 4-hydroxytamoxifen, no NAM). Groups were compared by unpaired two-tailed Student's t-test in n=4 (***P<0.001, **P<0.01 *P<0.05). (B) NAMPT KD cells present reduced absolute levels of NAD′ and nicotinamide treatment induces NAD^+ and NADH levels in both control (CT) or NAMPT KD (shNAMPT) breast cancer cells. NAD^+ and NADH were analyzed independently in whole cell extracts of 1×10^6 cells. Metabolite concentrations were determined using a NAD^+/NADH fluorescence detection kit (Cell Technology, Inc). (C) Distribution of ERα in MCF7 shCT or shNAMPT cells, measured after 7 days of cell treatment with 10 mM nicotinamide in EMEM medium, supplemented with 10% FBS. ERα localization was detected by immunofluorescence using anti-ERα clone SP1 (Thermo Fisher). Nuclei were detected by DAPI staining. Representative images are shown.
# Nicotinamide riboside (NR) was more efficient than nicotinamide in blocking low-NAMPT-induced tamoxifen resistance. Proliferation of control (shCT) vs NAMPT-knockdown (shNAMPT) MCF7 cells treated with 1 or 5 μM 4-hydroxytamoxifen (tamoxifen active metabolite) for 7 days with or without (A) 1, 5 or 10 mM nicotinamide (NAM) or (B) 1 or 5 mM nicotinamide riboside (NR). Proliferation was measured based on crystal violet staining and is expressed as % of proliferation of untreated cells (no 4-hydroxytamoxifen). Groups were compared by unpaired two-tailed Student's t-test in n=4 (***P<0.001, **P<0.01 *P<0.05).
# [2] = test system: MCF7 cells; test: Growth of MCF7 cells in estrogen-free, phenol red-free medium, crystal violet staining; format: cell-based, human; conditions: for proliferation with 4-hydroxytamoxifen: 10 nM E2 + 1 μM 4-hydroxytamoxifen; for sensitization to tamoxifen's antiproliferative effects: 1 μM 4-hydroxytamoxifen
# Experimental: (A) Growth of control (shCtrl) vs NAMPT knockdown (shNAMPT) MCF7 cells cultured for 7 days in EMEM medium supplemented with 10% FBS, or in phenol red-free EMEM supplemented with 10% charcoal-stripped estrogen-free FBS. Growth was measured by crystal violet staining after 7 days in culture. Groups were compared by unpaired two-tailed Student's t-test in n=3 (***P<0.001). (B) Growth of control (shCtrl) vs NAMPT knockdown (shNAMPT) MCF7 cells cultured in estrogen-free, phenol red-freeEMEM medium supplemented with 10% charcoal-stripped FBS. […] Growth was measured by crystal violet staining after 7 days in culture. Groups were compared by unpaired two-tailed Student's t-test in n=3 (*P<0.05,[…],***P<0.001). (C) Changes in NAD^+ levels impact the subcellular localization of ERα. […] Estrogen starvation and treatment were performed in phenol red-free EMEM supplemented with 10% charcoal-stripped FBS. ERα was detected by immunofluorescence using Pierce anti-ERα antibody (MA1-39539). Representative images are shown for all conditions.
# To further analyze the regulatory role of NAMPT and the NAD^+ salvage pathway in estrogen-dependent growth and tamoxifen treatment, we first analyzed the capacity of MCF7 variant cells to grow in estrogen-free media. […] Importantly, low NAMPT expressing MCF7 cells (shNAMPT) had the capacity to proliferate even in the absence of estrogens (FIG. 6A). […] Furthermore, NAM treatment sensitized shCT and re-sensitized shNAMPT cells to tamoxifen's antiproliferative effects (FIG. 6B). In FIG. 4C, we analyzed the ERα localization in MCF7 cells when the cells were cultured in EMEM medium supplemented with 10% FBS, serum that contain hormones and growth factors that modulate ERα localization independently of the presence of estrogens (Muriel Le Romancer et al., Endocrine Reviews, October 2011, 32(5):597-622). In order to deeply analyze the role of NAMPT and NAM treatment on modulating ligand-dependent ERα nuclear localization, we starved the cells from any growth factor and hormones including estrogens for 72 hours by growing them in phenol red-free EMEM/10% charcoal-stripped FBS. Then, breast cancer cells were cultured for 24 hours with or without 10 nM E2, or with 10 nM E2 plus 10 mM NAM. […] In the absence of estrogens, ERα was distributed in the cytoplasm of control cells while in shNAMPT expressing cells ERα was concentrated in the nuclei.
# [3] = test system: T47D cells; test: Proliferation of T47D cells (shCtrl vs shNAMPT) by crystal violet staining; format: cell-based, human; conditions: 14 days
# Experimental: as §1, with “(D) Proliferation of control (shCtrl) vs NAMPT-knockdown (shNAMPT) MCF7 and T47D cells, untreated or treated with 0.001, 0.05, 0.1, 1, or 5 μM 4-hydroxytamoxifen (tamoxifen active metabolite) for 14 days.” left out, “Groups were compared by unpaired two-tailed Student's t-test in n=4 (***P<0.001, **P<0.01 *P<0.05).” left out
# (§2) (A) Effect of nicotinamide treatment (10 mM NAM) on proliferation of control (shCtrl) vs NAMPT-knockdown (shNAMPT) MCF7 and T47D cells exposed to 1 μM or 0.1 μM 4-hydroxytamoxifen (tamoxifen active metabolite) respectively for 14 days. Proliferation was measured based on crystal violet staining and is expressed as % of proliferation of untreated cells (no 4-hydroxytamoxifen, no NAM). […] NAD^+ and NADH were analyzed independently in whole cell extracts of 1×10^6 cells. Metabolite concentrations were determined using a NAD^+/NADH fluorescence detection kit (Cell Technology, Inc). […] Nuclei were detected by DAPI staining. […]
# [4] = test system: cellular NAD^+; test: Cellular NAD+ in whole cell extracts, NAD+/NADH fluorescence detection kit; format: cell-based, human; conditions: MCF7 cells expressing basal or low NAMPT levels
# Experimental: as §1, with “(D) Proliferation of control (shCtrl) vs NAMPT-knockdown (shNAMPT) MCF7 and T47D cells, untreated or treated with 0.001, 0.05, 0.1, 1, or 5 μM 4-hydroxytamoxifen (tamoxifen active metabolite) for 14 days.” left out, “Groups were compared by unpaired two-tailed Student's t-test in n=4 (***P<0.001, **P<0.01 *P<0.05).” left out
# as §2
# [5] = test system: ERα
# [6] = test system: MDA-MB-231 cells; test: Proliferation of triple negative MDA-MB-231 cells by crystal violet staining; format: cell-based, human; conditions: 10 mM NAM, 0.5, 1 or 5 μM 4-hydroxytamoxifen, 14 days
# Experimental: Proliferation of triple negative breast MDA-MB-231 cells, untreated or treated with 0.5, 1 or 5 μM 4-hydroxytamoxifen (tamoxifen active metabolite) for 14 days, with or without treatment with 10 mM nicotinamide (NAM). Proliferation was measured based on crystal violet staining and is expressed as % of proliferation of untreated cells (no 4-hydroxytamoxifen, no NAM). Groups were compared by unpaired two-tailed Student's t-test in n=3 (**P<0.01).
# [7] = 1 or 5 μM 4-hydroxytamoxifen, 7 days
# [8] = MCF7 shNAMPT, 10 mM NAM, 7 days
compound,measurement,setting,value
4-hydroxytamoxifen,anti-proliferative efficacy of 4-hydroxytamoxifen on reduction of NAMPT expression,"[1]; MCF7 shNAMPT vs shCtrl, 0.001-5 μM, 14 days",dramatically reduced the anti-proliferative efficacy
same,proliferation with 4-hydroxytamoxifen,"[2]; MCF7 shCT, 7 days",able to reduce proliferation
same,proliferation with 4-hydroxytamoxifen,"[2]; MCF7 shNAMPT, 7 days",not in shNAMPT
same,anti-proliferative efficacy of 4-hydroxytamoxifen on reduction of NAMPT expression,"[3]; T47D shNAMPT vs shCtrl, 0.001-5 μM",dramatically reduced the anti-proliferative efficacy
C[C@]12CC[C@@H]3c4ccc(O)cc4CC[C@H]3[C@@H]1CC[C@@H]2O [17-β-estradiol],proliferation with 17-β-estradiol,"[2]; MCF7 shCT, 10 nM E2, 7 days, estrogen-free medium",induced proliferation
"NC(=O)c1cccnc1 [NAM, nicotinamide]",restoration of tamoxifen sensitivity,[1]; [7],restore tamoxifen sensitivity
same,effect of NAM on anti-proliferative efficacy of 4-hydroxytamoxifen,"[1]; MCF7 shCtrl and shNAMPT, 10 mM NAM, 1 μM 4-hydroxytamoxifen, 14 days",enhanced the anti-proliferative efficacy of 4-hydroxytamoxifen
same,NAD+ levels after NAM treatment,[4],induced significantly NAD^+ levels
same,ERα nuclear localization with NAM,"[5]; MCF7 control and shNAMPT, estrogen starved 72 h, 10 nM E2 plus 10 mM NAM, 24 h",inhibited ERα nuclear localization
same,ERα expression and nuclear localization,"[5]; MCF7 shCT or shNAMPT, 10 mM nicotinamide, 7 days, EMEM with 10% FBS",do not affect estrogen receptor alpha (ERα) expression and nuclear localization
same,sensitization to tamoxifen's antiproliferative effects,"[2]; MCF7 shCT, 10 mM NAM, 7 days",sensitized
same,estrogen-induced proliferation,"[2]; MCF7 shCT, 10 mM NAM, 7 days",dramatically inhibited
same,sensitization to tamoxifen's antiproliferative effects,[2]; [8],re-sensitized
same,estrogen-independent growth,[2]; [8],dramatically inhibited
same,sensitization to tamoxifen-induced antiproliferative effects,[6],sensitized MDA-MB-231 to tamoxifen-induced antiproliferative effects
same,effect of NAM on anti-proliferative efficacy of 4-hydroxytamoxifen,"[3]; T47D shCtrl and shNAMPT, 10 mM NAM, 0.1 μM 4-hydroxytamoxifen",enhanced the anti-proliferative efficacy of 4-hydroxytamoxifen
NC(=O)c1ccc[n+]([C@@H]2O[C@H](CO)[C@@H](O)[C@H]2O)c1 [nicotinamide riboside],activity in restoring Tamoxifen sensitivity compared with NAM,"[1]; ER+/NAMPT low (shNAMPT) MCF7 cells, 1 or 5 mM NR, 1 or 5 μM 4-hydroxytamoxifen, 7 days",more potent activity than NAM
same,restoration of tamoxifen sensitivity,[1]; [7],restore tamoxifen sensitivity
